Measured values from patent US6458837B1, “Lipophilic diesters of chelating agents” (D-Pharm Ltd., priority 1997, dated 2002).
Marks after values point to notes of the source that are not given here.

How the values were obtained:
[1] = Octanol-saline partition coefficient (lipophilicity); format: physicochemical; conditions: for LogPc, octanol-saline partition coefficient, M = Ca++: calcium salt (BAPTA: dicalcium salt); for LogPc, octanol-saline partition coefficient, M = Ca++ / LogPc, octanol-saline partition coefficient, M = Na+: octanol/physiological saline, 26° C.; for LogPc, octanol-saline partition coefficient, M = Na+: sodium salt (BAPTA: tetrasodium salt)
Procedure: The lipophilicity values of several BAPTA diesters salts of the invention were studied by comparing the solubility of these compounds in organic versus aqueous solutions. Octanol and physiological saline were used, respectively, as the organic and aqueous solutions. The partition coefficient (Pc), i.e the distribution ratio between the organic and the aqueous phases were determined for several specific BAPTA diesters salts of the general formula I: [drawing 6]

Mongolian gerbils [2] = assay: Global forebrain ischemia, animal survival; format: in vivo; conditions: 10 μg/kg i.p. single dose at onset of reperfusion; 20 min ischemia
Procedure: (§1) Animal. Male Mongolian gerbils 60-70 g (Charles River Laboratories, USA) were used for the study.
(§2) Induction of ischemia. Anesthesia was induced in gerbils with halothane (4%) in an anesthesia chamber (30% oxygen, 70% nitrous oxide) and was maintained with 1% halohtane in 30% oxygen and 70% nitrous oxide using face masks. For ischemia induction, both common carotid arteries were isolated via a neck midline incision and temporarily occluded for 10 or 20 min, as indicated, using arterial clips. During the entire period of cerebral ischemia, when the clips were in place, anesthesia was maintained only with 30% oxygen and 70% nitrous oxide, without halothane. Rectal temperature, monitored with a rectal probe, was maintained throughout ischemia at 37-37.5° C. by using a warming lamp and heating pad. Whenever applied, the tested BAPTA diesters were administered to the animals either parenterally via i.p. or orally, at the times and dosages as indicated in each particular experiment. Control animals were treated with the vehicle alone, i.e with 0.9% NaCl solution instead of the PABTA diester compound.

Mongolian gerbils [3] = conditions: 5 μg/kg i.p. single dose immediately after 10 minutes ischemia; three days after ischemia
Mongolian gerbils [4] = conditions: for neuroprotective activity, sodium salt compared with calcium salt: global forebrain ischemia model; for neuronal damage (serum NSE activity 24 hours after ischemia): single dose 5μg/kg i.p. at onset of reperfusion (t=0) or 3 hours after (t=3), 10 min ischemia
Procedure: as §1, §2
Statistics. Statistical analysis was carried out using the Student's t-test with Bonferroni corrections and p<0.05 as the level of significance.
Neuronal-specific enolase (NSE) assay. Blood samples were taken from the orbital sinus of gerbils 24 and 72 hours after 10 min period of cerebral ischemia. Blood samples were centrifuged for 5 min at 3000 rpm to obtain serum (the supernatant fraction). NSE activity in the serum was determined by radioimmunoassay using NSE kit (Pharmatope Ltd.,Israel).
The enzymatic activity of neuronal-specific enolase (NSE ) in the serum was used for evaluating the efficacy of the tested BAPTA-diesters in preventing neuronal damage. […] Thus, NSE may serve as a quantitative marker for the degree of neuronal damage.

Na/K-ATPase = Na/K-ATPase activity in mouse brain cortex homogenate; format: biochemical; conditions: 10^−7 to 10^2 μg/ml; mouse cerebral cortex homogenate
Procedure: Thus, the effects of BAPTA-diesters on Na/K-ATPase activity were examined in mouse brain homogenates treated with different concentrations of diethyl-BAPTA (DP-BAPTA 27, disodium salt). The BAPTA-diester tested concentrations ranged from 10^−7 to 10^2 μg/ml.
Preparation of mouse brain homoganate. Male CD-1 mice (10 to 21 days of age) were sacrificed by rapid decapitation. The skull was opened, the brains removed and cut into two. The cortex was isolated, put into sodium Ringer's buffer, washed three times with ice cold PBS and kept on ice. The brain tissue was homogenized using a Polytron at 14000 rpm for 4×30 seconds, on ice. The homogenization buffer contained: 250 mM Sucrose; 1 mM EGTA; 20 mM HEPES-Tris, pH 7.4, and the protease inhibitor PMSF.
The homogenate was span down in a Sorval refrigerated centrifuge at 27000 g for 30 minutes. The membrane fraction was collected and re-suspended in the homogenization buffer. […]
Na/K-ATPase assay. Na/K ATPase was measured as described before (Norby J, G. Coupled (1988) Assay of the Na^+—K^+ ATPase Activity. Methods in Enzymology. 156: 116-119) in the absence and presence of the Na/K-ATPase inhibitor, ouabain (3 mM). The Protein content was determined using the Bio Rad-Bradford assay as previously described (Bradford, M. (1978) Protein assay. Ann. Biochem. 72: 248-257.).

[5] = tested on: cultured neuronal cells of rat hippocampus; assay: Intracellular Ca++ concentration, Fluo-3/AM fluorescence; format: cell-based; conditions: 1 mM in 9 sec. pulse applied onto cultured hippocampal neurons
[6] = Water/octanol distribution of Ca++ ions; format: physicochemical; conditions: 15 ml octanol / 15 ml saline pH 6.5; CaCl2 2×10^−3 M/L
Procedure: (§3) The hydrophilic/hydrophobic system used in this set of experiments consisted of 15 ml octanol and 15 ml saline pH=6.5. DP-BAPTA 99 was dissolved in the octanol solution before this phase was mixed with the saline. The DP-BAPTA concentration in the different experiments varied from 2.1×10^−6 to 5.5×10^−4 M/L in the experiments with Ca^2+ and from 5.4×10^−6 to 1.4×10^−3 M/L in the experiments with either Zn^2+ or Fe^2+, as indicated for each point in FIGS. 1A-C. The corresponding metal ions were added in the aqueous solution as chlorides at the following concentrations: FeCl2 2×10^−3 M/L, ZnCl2 10^−4 M/L, CaCl2 2×10^−3 M/L.
(§4) The octanol and buffer phases were mixed and vortexed for 1 hr at room temperature, followed by centrifugation at 4000 rpm, 10 min in order to separate the mixture to the two phases.
(§5) Different analytical procedures were employed for water and octanol samples: i) Water samples were analyzed versus ICP standards from Merk. Ca and Zn were determined in tested solutions by inductively coupled plasma atomic emission spectrometry. An ICP-AES, model “Spectroflame Modula E” from Spectro, Kleve, Germany was used, with a standard cross flow nebulizer and fixed EOP torch. The power level was 1.2 kW, coolant flow—15 l/min, auxilliary flow 0.5 l/min and nebulizer flow—0.5 l/min. ii) Octanol samples, 2-ml each, in a glass tube, were transferred to a heating block. […]

[7] = tested on: cultured hippocampal neurons; conditions: 0.1, 1.0 or 10.0 μg/ml perfused 5 minutes; 40 millisecond K+ pulses
[8] = Water/octanol distribution of Zn++ ions; format: physicochemical; conditions: 15 ml octanol / 15 ml saline pH 6.5; ZnCl2 10^−4 M/L
Procedure: as §3, §4, §5

[9] = Water/octanol distribution of Fe++ ions; format: physicochemical; conditions: 15 ml octanol / 15 ml saline pH 6.5; FeCl2 2×10^−3 M/L
Procedure: as §3, §4, §5

Wistar rats = assay: Pilocarpine-induced epilepsy; conditions: i.p. one hour before pilocarpine 400 mg/kg

CCCCCCCCOC(=O)CN(CC(=O)O)c1ccccc1OCCOc1ccccc1N(CC(=O)O)CC(=O)OCCCCCCCC [DP-BAPTA-60, Octyl diester of BAPTA]
LogPc, octanol-saline partition coefficient, M = Ca++ [1]: 0.79
LogPc, octanol-saline partition coefficient, M = Na+ [1]: 0.85
extension of survival time (Mongolian gerbils [2]): 2 fold
ischemia-induced neuronal damage in CA-2, CA-3 and dentate gyrus regions of the hippocampus (Mongolian gerbils [3]): effective in decreasing the ischemia-induced neuronal damage in the same regions, albeit to a lesser extent than DP-BAPTA 99
neuroprotective activity, sodium salt compared with calcium salt (Mongolian gerbils [4]): equally effective
neuronal damage (serum NSE activity 24 hours after ischemia) (Mongolian gerbils [4]): prevented neuronal damage

CCOC(=O)CN(CC(=O)O)c1ccccc1OCCOc1ccccc1N(CC(=O)O)CC(=O)OCC [DP-BAPTA 27, diethyl-BAPTA]
effect on Na/K-ATPase activity (Na/K-ATPase): dose dependent increase in Na/K-ATPase activity

O=C(O)CN(CC(=O)O)c1ccccc1OCCOc1ccccc1N(CC(=O)O)CC(=O)O [BAPTA, 1,2-bis(2 aminophenoxy)ethane-N,N,N′,N′-tetraacetic acid, reference compound]
effect on intracellular calcium levels (Fluo-3 fluorescence) [5]: only insignificant increase in intracellular Ca^2+
LogPc, octanol-saline partition coefficient, M = Ca++ [1]: −1.71^d)
LogPc, octanol-saline partition coefficient, M = Na+ [1]: −3.3^c)
drug concentration at which transfer of Ca++ ions from water to octanol is evident [6]: does not

CCCCCCCCOCCOC(=O)CN(CC(=O)O)c1ccccc1OCCOc1ccccc1N(CC(=O)O)CC(=O)OCCOCCCCCCCC [DP-BAPTA-99, BAPTA diester of octylethylene glycol]
LogPc, octanol-saline partition coefficient, M = Ca++ [1]: 1.10
lipophilicity relative to the sodium salt of the parent molecule BAPTA ([1]; octanol versus aqueous phase): 10,000 fold
LogPc, octanol-saline partition coefficient, M = Na+ [1]: 0.80
effect on potassium-induced increase in intracellular calcium ion concentration [7]: attenuates potassium-induced increase in intracellular calcium ion concentration
drug concentration at which transfer of Zn++ ions from water to octanol is evident [8]: 10 µM
drug concentration at which transfer of Fe++ ions from water to octanol is evident [9]: 250 to 500 µM
extension of survival time (Mongolian gerbils [2]): 3 fold
drug concentration at which transfer of Ca++ ions from water to octanol is evident [6]: 250 to 500 µM
ischemia-induced neuronal damage in CA-2, CA-3 and dentate gyrus regions of the hippocampus (Mongolian gerbils [3]): significant neuroprotective effect
effect on generalized seizures (Wistar rats): capable of preventing generalized seizures
effect on limbic seizures (Wistar rats): no effect
effect on mortality during the 3 hour period of status epilepticus (Wistar rats): reduces mortality
prevention of status epilepticus (Wistar rats): about half of the population
neuroprotective activity, sodium salt compared with calcium salt (Mongolian gerbils [4]): much pronounced neuroprotective activity comparing to the calcium salt
serum NSE activity 24 h and 72 h after global cerebral ischemia (Mongolian gerbils [4]; oral, 0.5 mg/kg 4 hours before and at onset of reperfusion, or 0.5 mg/kg daily for 3 days after ischemia): significant reduction in NSE activity
neuronal damage (serum NSE activity 24 hours after ischemia) (Mongolian gerbils [4]): prevented neuronal damage
